Reference: patent publication US12509482B2, “3′-ketoglycoside compound for the slow release of a volatile alcohol” (GLYCOSCIENCE, S.L., priority 2020, dated 2025)

Key:
Assay type in all cases: physicochemical
[1] = Example 14: release of eugenol from eugenyl-O-β-D-3′-ketoglucopyranoside, 0.1 M deuterated phosphate buffer or D2O, 33% D6-DMSO, 32° C.
Description: In this example the rate of release of eugenol from (2S,3S,5R,6R)-2-(4-allyl-2-methoxyphenoxy)-3,5-dihydroxy-6-(hydroxymethyl)tetrahydro-4H-pyran-4-one (eugenyl-O-β-D-3′-ketoglucopyranoside) in 0.1 M deuterated phosphate buffer solutions of differing pH containing 33% D6-DMSO was determined.
(§1) 0.1 M of pH 5.8 and 7.4 stock buffered solutions of sodium dihydrogen phosphate and disodium hydrogen phosphate were prepared in deuterated water (D2O).
A stock solution of 15 mg of eugenyl-O-β-D-3′-ketoglucopyranoside in 1.0 mL of D6-DMSO were prepared.
(§2) To three parallel reaction vials, where indicated in the reaction table below, was added 0.20 mL of the glycoside substrate solutions in D6-DMSO and 0.40 mL of low or high pH 0.1M phosphate buffer in D2O or D2O and the mixtures incubated by shaking at 32° C. After times indicated in table below, the mixtures where analysed by ^1H-NMR in a 400 MHz instrument.

[2] = Example 26: release of geraniol from 2′,6′-diacetyl-geranyl-O-β-D-3′-ketoglucopyranoside, 0.1 M deuterated phosphate buffer, 50% D6-DMSO, 32° C.
Description: In this example the rate of release of geraniol from (((2R,3R,5S)-5-acetoxy-6-(((E)-3,7-dimethylocta-2,6-dien-1-yl)oxy)-3-hydroxy-4-oxotetrahydro-2H-pyran-2-yl)methyl acetate (2′,6′-Diacetyl-geranyl-O-β-D-3′-ketoglucopyranoside) in 0.1 M deuterated phosphate buffer solutions of differing pH containing 50% D6-DMSO was determined.
as §1
A stock solution of 15 mg of 2′,6′-diacetyl-geranyl-O-β-D-3′-ketoglucopyranoside in 1.5 mL of D6-DMSO were prepared.
as §2, with “two” for “three”, “0.35” for “0.20”, “0.35” for “0.40”, “in” for “in D2O or”

[3] = Example 18: release of picaridin from 250 μM picaridin-O-β-D-3′-ketoglucopyranoside in different pH aqueous buffers, 32° C., UPLC
Description: In this example the rate of release of picaridin from a solution of sec-butyl 2-(2-(((2R,3S,5R,6R)-3,5-dihydroxy-6-(hydroxymethyl)-4-oxotetrahydro-2H-pyran-2-yl)oxy)ethyl)piperidine-1-carboxylate (picaridin-O-β-D-3′-ketoglucopyranoside) different pH aqueous buffers was determined.
Parallel mixtures containing 250 μM picaridin-O-β-D-3′-ketoglucopyranoside in 0.05M K2HPO4 0.95M/KH2PO4, pH=8.5 buffer (Reaction 1), 0.17M Na2HPO4/0.02M citric acid, pH=7 buffer (Reaction 2), 0.12M Na2HPO4/0.04M citric acid buffer, pH=5.8 (Reaction 3) and 0.04M sodium citrate/0.06M citric acid buffer, pH=4 (Reaction 4) were incubated at 32° C. Aliquots of 10 μl were periodically taken, diluted with MeCN (90 μl) and analysed by UPLC using the following instrument and conditions: • Stationary phase: Acquity UPLC® BEH C18 1.7 μm (2.1 mm×50 mm) (Waters) • Mobile phase: A: water+0.1% formic acid; B: acetonitrile+0.1% formic acid • The chromatographic equipment employed was an UPLC QSM Waters Acquity. • Gradient conditions:
• Flow Rate(mL/min) 0.6 • Source Temperature (° C.) 150 • Desolvation Temperature (° C.) 500 • Cone Gas Flow (L/Hr) 50 • Desolvation Gas Flow (L/Hr) 900 • Target Column Temperature 35° C.
Target Sample Temperature 8.0° C.

[4] = Example 19: release of cis-PMD from cis-PMD-O-β-D-3′-ketoglucopyranoside, 0.1 M deuterated phosphate buffer, 33% D6-DMSO, 32° C.
Description: In this example the rate of release of cis-PMD from (2R,3R,5S)-3,5-dihydroxy-2-(hydroxymethyl)-6-((5-(2-hydroxypropan-2-yl)-2-methylcyclohexyl)oxy)tetrahydro-4H-pyran-4-one (cis-PMD-O-β-D-3′-ketoglucopyranoside) in 0.1 M deuterated phosphate buffer solutions of differing pH containing 33% D6-DMSO was determined. 0.1 M of pH 5.8 and 7.4 stock buffered solutions of sodium dihydrogen phosphate and disodium hydrogen phosphate were prepared in deuterated water (D2O).
A stock solution of 10 mg of cis-PMD-O-β-D-3′ketoglucopyranoside in 0.5 mL of D6-DMSO were prepared.
as §2, with “two” for “three”, “[…]” for “0.40”, “in” for “in D2O or”

[5] = Example 27: release of phenol from 2′,6′-diacetyl-phenyl-O-β-D-3′-ketoglucopyranoside, 0.1 M deuterated phosphate buffer or D2O, 33% D6-DMSO, 32° C.
Description: as §1
A stock solution of 25 mg of 2′,6′-diacetyl-phenyl-O-β-D-3′-ketoglucopyranoside in 1.0 mL of D6-DMSO were prepared.
as §2, with “D2O” for “D2O or D2O”

Compound: C=CCc1ccc(O[C@@H]2O[C@H](CO)[C@@H](O)C(=O)[C@H]2O)c(OC)c1 [eugenyl-O-β-D-3′-ketoglucopyranoside, (2S,3S,5R,6R)-2-(4-allyl-2-methoxyphenoxy)-3,5-dihydroxy-6-(hydroxymethyl)tetrahydro-4H-pyran-4-one]
- pH dependence of eugenol release (in words) ([1]; 32° C.): only slowly degraded at pH 5.8, but releases eugenol at a significantly higher rate at pH 7.4
- % Conversion by 1H-NMR ([1]; D2O, 1 h): 3%
- % Conversion by 1H-NMR ([1]; D2O, 5 h): 3%
- % Conversion by 1H-NMR ([1]; D2O, 23 h): 5%
- % Conversion by 1H-NMR ([1]; D2O, 69 h): 10%
- % Conversion by 1H-NMR ([1]; pH 5.8, 1 h): 3%
- % Conversion by 1H-NMR ([1]; pH 5.8, 5 h): 3%
- % Conversion by 1H-NMR ([1]; pH 5.8, 23 h): 5%
- % Conversion by 1H-NMR ([1]; pH 5.8, 69 h): 5%
- % Conversion by 1H-NMR ([1]; pH 7.4, 1 h): 3%
- % Conversion by 1H-NMR ([1]; pH 7.4, 5 h): 8%
- % Conversion by 1H-NMR ([1]; pH 7.4, 23 h): 60%
- % Conversion by 1H-NMR ([1]; pH 7.4, 69 h): 80%

Compound: CC(=O)OC[C@H]1O[C@@H](OC/C=C(\C)CCC=C(C)C)[C@H](OC(C)=O)C(=O)[C@@H]1O [((2R,3R,5S,6R)-5-acetoxy-6-(((E)-3,7-dimethylocta-2,6-dien-1-yl)oxy)-3-hydroxy-4-oxotetrahydro-2H-pyran-2-yl)methyl acetate]
- geraniol release (in words) ([2]; 32° C.): generates geraniol at both pH 5.8 and pH 7.4
- % Conversion by 1H-NMR ([2]; pH 5.8, 0 h): 0%
- % Conversion by 1H-NMR ([2]; pH 5.8, 5 h): 10%
- % Conversion by 1H-NMR ([2]; pH 5.8, 24 h): 20%
- % Conversion by 1H-NMR ([2]; pH 5.8, 48 h): 39%
- % Conversion by 1H-NMR ([2]; pH 5.8, 120 h): 43%
- % Conversion by 1H-NMR ([2]; pH 5.8, 480 h): 92%
- % Conversion by 1H-NMR ([2]; pH 5.8, column head 19 (between 120 h and 480 h)): 62%
- % Conversion by 1H-NMR ([2]; pH 7.4, 0 h): 0%
- % Conversion by 1H-NMR ([2]; pH 7.4, 5 h): 6%
- % Conversion by 1H-NMR ([2]; pH 7.4, 24 h): 25%
- % Conversion by 1H-NMR ([2]; pH 7.4, 48 h): 33%
- % Conversion by 1H-NMR ([2]; pH 7.4, 120 h): 37%
- % Conversion by 1H-NMR ([2]; pH 7.4, 480 h): 85%
- % Conversion by 1H-NMR ([2]; pH 7.4, column head 19 (between 120 h and 480 h)): 55%

Compound: CCC(C)OC(=O)N1CCCCC1CCO[C@@H]1O[C@H](CO)[C@@H](O)C(=O)[C@H]1O (stereo partly drawn) [picaridin-O-β-D-3′-ketoglucopyranoside, sec-butyl 2-(2-(((2R,3S,5R,6R)-3,5-dihydroxy-6-(hydroxymethyl)-4-oxotetrahydro-2H-pyran-2-yl)oxy)ethyl) piperidine-1-carboxylate]
- pH dependence of degradation (in words) ([3]; 32° C.): degraded at increasing rate between pH 4 and pH 8.5
- Picaridin released ([3]; Reaction 1, pH=8.5 buffer, 0 h): 1 µM
- Picaridin released ([3]; Reaction 1, pH=8.5 buffer, 7 h): 2 µM
- Picaridin released ([3]; Reaction 1, pH=8.5 buffer, 24 h): 7 µM
- Picaridin released ([3]; Reaction 1, pH=8.5 buffer, 50 h): 15 µM
- Picaridin released ([3]; Reaction 2, pH=7 buffer, 0 h): 1 µM
- Picaridin released ([3]; Reaction 2, pH=7 buffer, 7 h): 1 µM
- Picaridin released ([3]; Reaction 2, pH=7 buffer, 24 h): 2 µM
- Picaridin released ([3]; Reaction 2, pH=7 buffer, 50 h): 4 µM
- Picaridin released ([3]; Reaction 3, pH=5.8 buffer, 0 h): 0.25 µM
- Picaridin released ([3]; Reaction 3, pH=5.8 buffer, 7 h): 0.75 µM
- Picaridin released ([3]; Reaction 3, pH=5.8 buffer, 24 h): 1 µM
- Picaridin released ([3]; Reaction 3, pH=5.8 buffer, 50 h): 2 µM
- Picaridin released ([3]; Reaction 4, pH=4 buffer, 0 h): 0.25 µM
- Picaridin released ([3]; Reaction 4, pH=4 buffer, 7 h): 0.75 µM
- Picaridin released ([3]; Reaction 4, pH=4 buffer, 24 h): 1 µM
- Picaridin released ([3]; Reaction 4, pH=4 buffer, 50 h): 1.75 µM

Compound: C[C@@H]1CC[C@@H](C(C)(C)O)C(O[C@@H]2O[C@H](CO)[C@@H](O)C(=O)[C@H]2O)C1 (mixture of isomers) [cis-PMD-O-β-D-3′-ketoglucopyranoside, (2R,3R,5S,6R)-3,5-dihydroxy-2-(hydroxymethyl)-6-(((1S,2R,5R)-2-(2-hydroxypropan-2-yl)-5-methylcyclohexyl)-oxy)tetrahydro-4H-pyran-4-one]
- pH dependence of cis-PMD release (in words) ([4]; 32° C.): only slowly degraded at pH 5.8, but releases cis-PMD at a significantly higher rate at pH 7.4
- % Conversion by 1H-NMR ([4]; pH 5.8, 0 h): 0%
- % Conversion by 1H-NMR ([4]; pH 5.8, 3 h): 0%
- % Conversion by 1H-NMR ([4]; pH 5.8, 20 h): 0%
- % Conversion by 1H-NMR ([4]; pH 5.8, 95 h): <5%
- % Conversion by 1H-NMR ([4]; pH 7.4, 0 h): 0%
- % Conversion by 1H-NMR ([4]; pH 7.4, 3 h): 12%
- % Conversion by 1H-NMR ([4]; pH 7.4, 20 h): 39%
- % Conversion by 1H-NMR ([4]; pH 7.4, 95 h): 45%
- % Conversion by 1H-NMR ([4]; pH 7.4, 167 h): 85%

Compound: CC(=O)OC[C@H]1O[C@@H](Oc2ccccc2)[C@H](OC(C)=O)C(=O)[C@@H]1O [((2R,3R,5S,6S)-5-acetoxy-3-hydroxy-4-oxo-6-phenoxytetrahydro-2H-pyran-2-yl)methyl acetate]
- phenol release (in words) ([5]; 32° C.): generates phenol at both pH 5.8 and pH 7.4 and in D2O
- % Conversion by 1H-NMR ([5]; D2O, 0 h): 0%
- % Conversion by 1H-NMR ([5]; D2O, 4 h): 0%
- % Conversion by 1H-NMR ([5]; D2O, 22 h): 10%
- % Conversion by 1H-NMR ([5]; D2O, 70 h (printed under the 52 h column)): 21%
- % Conversion by 1H-NMR ([5]; pH 5.8, 0 h): 14%
- % Conversion by 1H-NMR ([5]; pH 5.8, 4 h): 18%
- % Conversion by 1H-NMR ([5]; pH 5.8, 22 h): 24%
- % Conversion by 1H-NMR ([5]; pH 5.8, 52 h): 26%
- % Conversion by 1H-NMR ([5]; pH 5.8, 120 h): 36%
- % Conversion by 1H-NMR ([5]; pH 5.8, 432 h): 54%
- % Conversion by 1H-NMR ([5]; pH 7.4, 0 h): 19%
- % Conversion by 1H-NMR ([5]; pH 7.4, 4 h): 43%
- % Conversion by 1H-NMR ([5]; pH 7.4, 22 h): 74%
- % Conversion by 1H-NMR ([5]; pH 7.4, 52 h): 81%
- % Conversion by 1H-NMR ([5]; pH 7.4, 120 h): 93%
- % Conversion by 1H-NMR ([5]; pH 7.4, 432 h): 100%
